Measured values: ChEMBL document CHEMBL4368910, “Discovery of ( R)-8-(6-Methyl-4-oxo-1,4,5,6-tetrahydropyrrolo[3,4- b]pyrrol-2-yl)-3-(1-methylcyclopropyl)-2-((1-methylcyclopropyl)amino)quinazolin-4(3 H)-one, a Potent and Selective Pim-1/2 Kinase Inhibitor for Hematological Malignancies” (J Med Chem, 2019)
In brackets after ≈: the same amount, converted by molar mass.

What was measured:
[1] = Solubility of the compound in 0.01N HCl at pH 2 incubated for 1 hr in shaker and subsequently equilibrated for 72 hrs by LC/MS analysis; type: physicochemical
[2] = Solubility of the compound in fasted state simulated intestinal fluid at pH 6.8 incubated for 1 hr in shaker and subsequently equilibrated for 72 hrs by LC/MS analysis; type: physicochemical
[3] = Solubility of the compound in phosphate buffer solution at pH 7.4 incubated for 1 hr in shaker and subsequently equilibrated for 72 hrs by LC/MS analysis; type: physicochemical
[4] = Apparent permeability in pig LLC-PK1 cells at 5 uM; type: ADME, cell-based, Sus scrofa
[5] = Oral bioavailability in Sprague-Dawley rat at 5 mg/kg; type: ADME, organism-based; conditions: in vivo
[6] = Volume of distribution at steady state in Sprague-Dawley rat; type: ADME; conditions: in vivo, read-out: Vdss
[7] = Drug uptake in plasma of SCID-Beige mouse xenografted with human KMS-12-BM cells at 25 to 100 mg/kg, po administered once daily for 14 days and measured twice per week; type: ADME, organism-based; conditions: in vivo, 336 h
[8] = Oral bioavailability in dog; type: ADME, organism-based, Canis lupus familiaris; conditions: in vivo
[9] = Volume of distribution at steady state in dog; type: ADME, Canis lupus familiaris; conditions: in vivo, read-out: Vdss

Row | SMILES | solubility thermodynamic at 72 h [1] [µM] | solubility thermodynamic at 72 h [2] [µM] | solubility thermodynamic at 72 h [3] [µM] | Papp at 5 µM [4] [×10⁻⁶ cm/s] | bioavailability [5] [%] | Vd [6] [L/kg] | Drug uptake [7] | bioavailability [8] [%] | Vd [9] [L/kg]
1 | C[C@H]1NC(=O)c2cc(-c3cccc4c(=O)n(C5CC5)c(NC(C)(C)C)nc34)[nH]c21 | 95 (≈ 37.2 µg/mL) | 175 (≈ 68.5 µg/mL) | 13 (≈ 5.09 µg/mL) |  |  |  |  |  | 
2 | CC(C)n1c(NC(C)(C)C)nc2c(-c3cc4c([nH]3)[C@@H](C)NC4=O)cccc2c1=O | 26 (≈ 10.2 µg/mL) | 68 (≈ 26.8 µg/mL) | 11 (≈ 4.33 µg/mL) |  |  |  |  |  | 
3 | C[C@H]1NC(=O)c2cc(-c3cccc4c(=O)n(C)c(NC5(C)CC5)nc34)[nH]c21 | 500 (≈ 182 µg/mL) | 344 (≈ 125 µg/mL) | 56 (≈ 20.4 µg/mL) | 31 |  |  |  |  | 
4 | C[C@H]1NC(=O)c2cc(-c3cccc4c(=O)n(C5CC5)c(NC5(C)CC5)nc34)[nH]c21 | 458 (≈ 178 µg/mL) | 144 (≈ 56.1 µg/mL) | 78 (≈ 30.4 µg/mL) | 23 | 68 | 1.2 |  |  | 
5 | C[C@H]1NC(=O)c2cc(-c3cccc4c(=O)n(C)c(NC(C)(C)C)nc34)[nH]c21 | 60 (≈ 21.9 µg/mL) | 104 (≈ 38 µg/mL) | 23 (≈ 8.41 µg/mL) | 46 |  |  |  |  | 
6 | C[C@H]1NC(=O)c2cc(-c3cccc4c(=O)n(CC5CC5)c(NC5(C)CC5)nc34)[nH]c21 | 214 (≈ 86.3 µg/mL) | 179 (≈ 72.2 µg/mL) | 13 (≈ 5.25 µg/mL) |  |  |  |  |  | 
7 | C[C@H]1NC(=O)c2cc(-c3cccc4c(=O)n(C(C)(C)C)c(NC(C)(C)C)nc34)[nH]c21 | < 5 | 58 (≈ 23.6 µg/mL) | < 5 |  |  |  |  |  | 
8 | C[C@H]1NC(=O)c2cc(-c3cccc4c(=O)n(CC5CC5)c(NC(C)(C)C)nc34)[nH]c21 | < 5 | 12 (≈ 4.87 µg/mL) | < 5 |  |  |  |  |  | 
9 | C[C@H]1NC(=O)c2cc(-c3cccc4c(=O)n(C[C@H]5CN(C)CCO5)c(NC(C)(C)C)nc34)[nH]c21 | 256 (≈ 119 µg/mL) | < 5 | < 5 |  |  |  |  |  | 
10 | C[C@H]1NC(=O)c2cc(-c3cccc4c(=O)n(CC(C)(C)N)c(NC(C)(C)C)nc34)[nH]c21 | 347 (≈ 147 µg/mL) | 131 (≈ 55.4 µg/mL) | 26 (≈ 11 µg/mL) |  |  |  |  |  | 
11 | C[C@H]1NC(=O)c2cc(-c3cccc4c(=O)n(CC5(O)CC5)c(NC5(C)CC5)nc34)[nH]c21 | 43 (≈ 18 µg/mL) | 15 (≈ 6.29 µg/mL) | < 5 |  |  |  |  |  | 
12 | C[C@H]1NC(=O)c2cc(-c3cccc4c(=O)n([C@@H](C)c5cn(C)cn5)c(NC5(C)CC5)nc34)[nH]c21 | 464 (≈ 212 µg/mL) | 469 (≈ 215 µg/mL) | 60 (≈ 27.5 µg/mL) | 35 | 19 | 1 |  |  | 
13 | C[C@H]1NC(=O)c2cc(-c3cccc4c(=O)n(C5(C)CC5)c(NC(C)(C)C)nc34)[nH]c21 | < 5 | 36 (≈ 14.6 µg/mL) | < 5 |  |  |  |  |  | 
14 | C[C@H]1NC(=O)c2cc(-c3cccc4c(=O)n(C[C@H]5CCCO5)c(NC(C)(C)C)nc34)[nH]c21 | < 5 | 60 (≈ 26.1 µg/mL) | 19 (≈ 8.28 µg/mL) |  |  |  |  |  | 
15 | C[C@H](c1cn(C)cn1)n1c(NC2(C)CC2)nc2c(-c3cc4c([nH]3)[C@@H](C)NC4=O)cccc2c1=O | 485 (≈ 222 µg/mL) | 435 (≈ 199 µg/mL) | 53 (≈ 24.2 µg/mL) |  |  |  |  |  | 
16 | CC(c1cn(C)cn1)n1c(NC(C)(C)C)nc2c(-c3cc4c([nH]3)[C@@H](C)NC4=O)cccc2c1=O (stereo not given in full) | 423 (≈ 194 µg/mL) | 489 (≈ 225 µg/mL) | 86 (≈ 39.5 µg/mL) |  |  |  |  |  | 
17 | C[C@H]1NC(=O)c2cc(-c3cccc4c(=O)n(CC5(N)CC5)c(NC(C)(C)C)nc34)[nH]c21 | 500 (≈ 210 µg/mL) | 42 (≈ 17.7 µg/mL) | < 5 |  |  |  |  |  | 
18 | C[C@H]1NC(=O)c2cc(-c3cccc4c(=O)n(C5CCC5)c(NC5(C)CC5)nc34)[nH]c21 | 441 (≈ 178 µg/mL) | 379 (≈ 153 µg/mL) | < 5 |  |  |  |  |  | 
19 | C[C@H]1NC(=O)c2cc(-c3cccc4c(=O)n(CC5COC5)c(NC(C)(C)C)nc34)[nH]c21 | 14 (≈ 5.9 µg/mL) | 32 (≈ 13.5 µg/mL) | 6 (≈ 2.53 µg/mL) |  |  |  |  |  | 
20 | C[C@H]1NC(=O)c2cc(-c3cccc4c(=O)n(C[C@@H]5CN(C)CCO5)c(NC(C)(C)C)nc34)[nH]c21 | 500 (≈ 232 µg/mL) | 283 (≈ 131 µg/mL) | 122 (≈ 56.7 µg/mL) |  |  |  |  |  | 
21 | C[C@H]1NC(=O)c2cc(-c3cccc4c(=O)n(CC5(N)CC5)c(NC5(C)CC5)nc34)[nH]c21 | 454 (≈ 190 µg/mL) | 280 (≈ 117 µg/mL) | 134 (≈ 56.1 µg/mL) |  |  |  |  |  | 
22 | C[C@H]1NC(=O)c2cc(-c3cccc4c(=O)n(C[C@@H]5CCCO5)c(NC(C)(C)C)nc34)[nH]c21 | 28 (≈ 12.2 µg/mL) | 15 (≈ 6.53 µg/mL) | 12 (≈ 5.23 µg/mL) |  |  |  |  |  | 
23 | C[C@H]1NC(=O)c2cc(-c3cccc4c(=O)n(Cc5cn(C)cn5)c(NC(C)(C)C)nc34)[nH]c21 | 94 (≈ 41.9 µg/mL) | 131 (≈ 58.4 µg/mL) | 22 (≈ 9.8 µg/mL) |  |  |  |  |  | 
24 | C[C@H]1NC(=O)c2cc(-c3cccc4c(=O)n(C5(C)CC5)c(NC5(C)CC5)nc34)[nH]c21 | 490 (≈ 198 µg/mL) | 185 (≈ 74.6 µg/mL) | 31 (≈ 12.5 µg/mL) | 32 | 85 | 1.7 | Dose-dependent effect | 56 | 2.1
25 | C[C@H]1NC(=O)c2cc(-c3cccc4c(=O)n(C(C)(C)C)c(NC5(C)CC5)nc34)[nH]c21 | 495 (≈ 201 µg/mL) | 326 (≈ 132 µg/mL) | < 5 |  |  |  |  |  | 
26 | C[C@H]1NC(=O)c2cc(-c3cccc4c(=O)n(CC5(O)CC5)c(NC(C)(C)C)nc34)[nH]c21 | < 5 | < 5 | < 5 |  |  |  |  |  | 
27 | CC(c1cn(C)cn1)n1c(NC2(C)CC2)nc2c(-c3cc4c([nH]3)[C@@H](C)NC4=O)cccc2c1=O (mixture of isomers) | 500 | 500 | 52 |  |  |  |  |  | 
